Active and inactive are the calls of the source. How the calls were made is not given here.
Test system: GENE-TOX genotoxicity assays, various organisms and cells
Test: GENE-TOX mutagenicity studies
Settings: for call: Assay Type: In vivo carcinogenicity studies
[1] = Species/Cell Type: Salmonella typhimurium (one or more of the five standard strains: TA98, TA100, TA1535, TA1537, and TA1538), Assay Type: Histidine reverse gene mutation, Ames assay, Assay Code: SAL-, Evaluation Type: Evaluation A (Pre-1980)
[2] = Species/Cell Type: Salmonella typhimurium (one or more of the five standard strains: TA98, TA100, TA1535, TA1537, and TA1538), Assay Type: Histidine reverse gene mutation, Ames assay, Assay Code: SALT, Evaluation Type: Evaluation A (Pre-1980)
[3] = Species/Cell Type: Escherichia coli polA (W3119 vs P3478), Assay Type: Rec-assay, DNA effects (bacterial DNA repair), Assay Code: RE1T, Evaluation Type: Evaluation A (Pre-1980)
[4] = Species/Cell Type: Salmonella typhimurium (one or more of the five standard strains: TA98, TA100, TA1535, TA1537, and TA1538), Assay Type: Histidine reverse gene mutation, Ames assay, Assay Code: SAL+, Evaluation Type: Evaluation A (Pre-1980)
[5] = Species/Cell Type: Rodents, Sex: Male, Assay Type: Dominant lethal test, Assay Code: DLT-, Evaluation Type: Evaluation A (Pre-1980)
[6] = Species/Cell Type: Saccharomyces cerevisiae, Assay Type: Mitotic recombination or gene conversion, Assay Code: YEC+, Evaluation Type: Evaluation A (Pre-1980)
[7] = Species/Cell Type: Bacillus subtilis (H17 vs M45), Assay Type: Rec-assay, spot test, DNA effects (bacterial DNA repair), Assay Code: REWT, Evaluation Type: Evaluation A (Pre-1980)
[8] = Species/Cell Type: Saccharomyces cerevisiae, Assay Type: Mitotic recombination or gene conversion, Assay Code: YEH-, Evaluation Type: Evaluation A (Pre-1980)
[9] = Species/Cell Type: Nonhuman, Assay Type: Sister-chromatid exchange (SCE) in vitro, Assay Code: SC2T, Evaluation Type: Evaluation B (Post-1980)
[10] = Species/Cell Type: Escherichia coli WP2 UVRA, Assay Type: Tryptophan reverse gene mutation, Assay Code: WPU-*, Activation: With metabolic activation, Evaluation Type: Evaluation A (Pre-1980)
[11] = Species/Cell Type: Nonhuman, Assay Type: Sister-chromatid exchange (SCE) in vitro, Assay Code: SC2+D, Dose Response: With dose response, Evaluation Type: Evaluation B (Post-1980)
[12] = Species/Cell Type: Saccharomyces cerevisiae, Assay Type: Reverse gene mutation, Assay Code: YER+, Evaluation Type: Evaluation A (Pre-1980)

CCCOC(=O)c1ccc(O)cc1
mutagenic call [1]: inactive; negative

OC/C=C/c1ccc2c(c1)OCO2
mutagenic call [2]: no conclusion

CCNC(=O)[C@@H]1CCCN1C(=O)[C@H](CCCN=C(N)N)NC(=O)[C@H](CC(C)C)NC(=O)[C@@H](Cc1c[nH]c2ccccc12)NC(=O)[C@H](Cc1ccc(O)cc1)NC(=O)[C@H](CO)NC(=O)[C@H](Cc1c[nH]c2ccccc12)NC(=O)[C@H](Cc1cnc[nH]1)NC(=O)[C@@H]1CCC(=O)N1
mutagenic call (Species/Cell Type: Human, Sex: Male, Assay Type: Sperm morphology, Assay Code: SPH+, Evaluation Type: Evaluation A (Pre-1980)): active; positive

O=C(OCN=Nc1ccccc1)c1ccccc1
mutagenic call [3]: no conclusion

O=CNc1nc(-c2ccc([N+](=O)[O-])s2)cs1
mutagenic call [4]: active; positive

CCCCC1C(=O)N(c2ccccc2)N(c2ccccc2)C1=O
mutagenic call (Species/Cell Type: Mammalian germ cells, Sex: Male, Assay Type: Chromosome aberrations in vivo, Assay Code: CY9-, Evaluation Type: Evaluation A (Pre-1980)): inactive; negative
mutagenic call (Species/Cell Type: Mammalian polychromatic erythrocytes, Assay Type: Micronucleus test, chromosome aberrations, Assay Code: MNT+, Evaluation Type: Evaluation B (Post-1980)): active; positive
mutagenic call (Species/Cell Type: Mammalian polychromatic erythrocytes, Assay Type: Micronucleus test, chromosome aberrations, Assay Code: MNTT, Evaluation Type: Evaluation A (Pre-1980)): no conclusion
mutagenic call [5]: inactive; negative
mutagenic call [2]: no conclusion

Cc1ccc(N=O)cc1
mutagenic call [6]: active; positive

O=NN(CCCl)C(=O)NCCCCCNC(=O)N(CCCl)N=O
mutagenic call (Species/Cell Type: Drosophila melanogaster, Assay Type: Sex-linked recessive lethal gene mutation, Assay Code: SRL+, Evaluation Type: Evaluation A (Pre-1980)): active; positive
mutagenic call [6]: active; positive

CO[C@@H]1[C@H](O)C[C@@H](O[C@@H]2C[C@H](Oc3cc4cc5c(c(O)c4c(O)c3C)C(=O)[C@@H](O[C@H]3C[C@@H](O[C@H]4C[C@@H](O[C@H]6C[C@](C)(O)[C@@H](OC(C)=O)[C@H](C)O6)[C@H](O)[C@@H](C)O4)[C@H](O)[C@@H](C)O3)[C@H]([C@H](OC)C(=O)[C@@H](O)[C@@H](C)O)C5)O[C@H](C)[C@@H]2OC(C)=O)O[C@@H]1C
mutagenic call (Species/Cell Type: Chinese hamster ovary (CHO) cells, Assay Type: Forward gene mutation at the HPRT locus, Assay Code: CHO+, Evaluation Type: Evaluation B (Post-1980)): active; positive

C1CC2OC2C2OC12 (centres undefined)
mutagenic call (Species/Cell Type: Neurospora crassa, Assay Type: Forward gene mutation, Assay Code: NEF-, Evaluation Type: Evaluation A (Pre-1980)): inactive; negative

Cc1cc(C(=O)NCCc2ccc(S(=O)(=O)NC(=O)NN3CCCCCC3)cc2)no1
mutagenic call (Species/Cell Type: Nonhuman, Assay Type: Sister-chromatid exchange (SCE) in vivo, Assay Code: SC3T, Evaluation Type: Evaluation B (Post-1980)): no conclusion

CC1=CC(=C(c2ccc(N)cc2)c2ccc(N)cc2)C=CC1=N
mutagenic call [7]: no conclusion

CCN(CCNc1ccc(CO)c2sc3ccccc3c(=O)c12)CC(C)(C)O
mutagenic call (Species/Cell Type: Mouse lymphoma (L5178Y) cells, Assay Type: Forward gene mutation at the thymidine kinase (TK) locus, chromosome aberrations, Assay Code: L51+, Evaluation Type: Evaluation A (Pre-1980)): active; positive

ClC(Cl)Br
mutagenic call (Species/Cell Type: Human lymphocytes, Assay Type: Sister-chromatid exchange (SCE) in vitro, Assay Code: SCL+D, Dose Response: With dose response, Evaluation Type: Evaluation B (Post-1980)): active; positive
mutagenic call (Species/Cell Type: Human, Assay Type: Sister-chromatid exchange (SCE) in vitro, Assay Code: SC1+D, Dose Response: With dose response, Evaluation Type: Evaluation B (Post-1980)): active; positive
mutagenic call (Species/Cell Type: Nonhuman, Assay Type: Sister-chromatid exchange (SCE) in vivo, Assay Code: SC3+D, Dose Response: With dose response, Evaluation Type: Evaluation B (Post-1980)): active; positive
mutagenic call [8]: inactive; negative
mutagenic call [4]: active; positive

CNC(=O)Oc1cc(C)c(N(C)C)c(C)c1
call (Species/Cell Type: Nonhuman, Assay Code: CCG-L, Evaluation Type: Evaluation A (Pre-1980)): inactive; negative

c1ccc2c(c1)c1cccc3ccc4cccc2c4c31
mutagenic call (Species/Cell Type: Chinese hamster lung (V79) cells, Assay Type: Forward gene mutation at the HPRT or ouabain locus, Assay Code: V79-, Evaluation Type: Evaluation A (Pre-1980)): inactive; negative
mutagenic call (Species/Cell Type: Escherichia coli polA (W3110 vs P3478), Assay Type: Rec-assay, DNA effects (bacterial DNA repair), Assay Code: RE2-, Evaluation Type: Evaluation A (Pre-1980)): inactive; negative
mutagenic call [3]: no conclusion
mutagenic call (Species/Cell Type: Fischer rat embryo (RLV/1706) cells, Assay Type: Cell transformation, viral enhanced, Assay Code: CTR-, Evaluation Type: Evaluation A (Pre-1980)): inactive; negative
mutagenic call (Species/Cell Type: Human diploid fibroblasts, Assay Type: Unscheduled DNA synthesis (UDS) in vitro, DNA effects, Assay Code: UDH+*, Activation: With metabolic activation, Evaluation Type: Evaluation A (Pre-1980)): active; positive
mutagenic call (Species/Cell Type: Mouse (BALB/c-3T3) cells, Assay Type: Cell transformation, Assay Code: CTB-, Evaluation Type: Evaluation A (Pre-1980)): inactive; negative
mutagenic call (Species/Cell Type: Mouse lymphoma (L5178Y) cells, Assay Type: Forward gene mutation at the thymidine kinase (TK) locus, chromosome aberrations, Assay Code: L51T, Evaluation Type: Evaluation A (Pre-1980)): no conclusion
call (Species/Cell Type: Nonhuman, Assay Code: CCGT, Evaluation Type: Evaluation A (Pre-1980)): no conclusion
mutagenic call [9]: no conclusion
mutagenic call (Species/Cell Type: Nonhuman, Assay Type: Sister-chromatid exchange (SCE) in vivo, Assay Code: SC3+, Evaluation Type: Evaluation B (Post-1980)): active; positive
mutagenic call (Species/Cell Type: Nonhuman, Assay Type: Sister-chromatid exchange (SCE) in vivo, Assay Code: SC3T, Evaluation Type: Evaluation A (Pre-1980)): no conclusion
mutagenic call [8]: inactive; negative
mutagenic call (Species/Cell Type: Salmonella typhimurium (one or more of the five standard strains: TA98, TA100, TA1535, TA1537, and TA1538), Assay Type: Histidine reverse gene mutation, Ames assay, Assay Code: SAL+*, Activation: With metabolic activation, Evaluation Type: Evaluation A (Pre-1980)): active; positive
mutagenic call (Species/Cell Type: Syrian hamster embryo (SHE) cells, Assay Type: Cell transformation, clonal assay, Assay Code: CTC-, Evaluation Type: Evaluation A (Pre-1980)): inactive; negative

CC1=C(/C=C/C(C)=C/C=C/C(C)=C/C=O)C(C)(C)CCC1
mutagenic call [9]: no conclusion

CNC(=O)Oc1cccc2c1OC(C)(C)C2
mutagenic call [7]: no conclusion
mutagenic call (Species/Cell Type: Drosophila melanogaster, Assay Type: Sex-linked recessive lethal gene mutation, Assay Code: SRL-, Evaluation Type: Evaluation A (Pre-1980)): inactive; negative
mutagenic call [10]: inactive; negative
mutagenic call [3]: no conclusion
mutagenic call (Species/Cell Type: Hordeum vulgare (barley), Assay Type: Chromosome aberrations, Assay Code: HOC+D, Dose Response: With dose response, Evaluation Type: Evaluation A (Pre-1980)): active; positive
mutagenic call (Species/Cell Type: Human diploid fibroblasts, Assay Type: Unscheduled DNA synthesis (UDS) in vitro, DNA effects, Assay Code: UDH-, Evaluation Type: Evaluation A (Pre-1980)): inactive; negative
mutagenic call [8]: inactive; negative
mutagenic call [1]: inactive; negative

Cc1ccc2c(c1O)N[C@H](O)[C@@H]1CC(/C=C/C(N)=O)=CN1C2=O
mutagenic call (Species/Cell Type: Mammalian polychromatic erythrocytes, Assay Type: Micronucleus test, chromosome aberrations, Assay Code: MNTT, Evaluation Type: Evaluation B (Post-1980)): no conclusion
mutagenic call [11]: active; positive
mutagenic call [6]: active; positive
mutagenic call (Species/Cell Type: Saccharomyces cerevisiae, Assay Type: Mitotic recombination or gene conversion, Assay Code: YEH+, Evaluation Type: Evaluation A (Pre-1980)): active; positive
mutagenic call [12]: active; positive
mutagenic call [2]: no conclusion

Cc1cccc2c1ccc1c3c(ccc12)C(=O)CC3
mutagenic call [2]: no conclusion

ONc1ccccc1
mutagenic call (Species/Cell Type: Human, Assay Type: Sister-chromatid exchange (SCE) in vitro, Assay Code: SC1+, Evaluation Type: Evaluation B (Post-1980)): active; positive

[O]=[V](=[O])[OH]
mutagenic call (Species/Cell Type: Bacillus subtilis (H17 vs M45), Assay Type: Rec-assay, spot test, DNA effects (bacterial DNA repair), Assay Code: REW+, Evaluation Type: Evaluation A (Pre-1980)): active; positive

O=S(O)O
mutagenic call [10]: inactive; negative
mutagenic call (Species/Cell Type: Mouse, Sex: Male, Assay Type: Heritable translocation test, chromosome aberrations, Assay Code: HTT-, Evaluation Type: Evaluation A (Pre-1980)): inactive; negative
mutagenic call (Species/Cell Type: Mouse, Sex: Male, Assay Type: Specific locus test, gene mutation, Assay Code: SLT-, Evaluation Type: Evaluation A (Pre-1980)): inactive; negative
mutagenic call [11]: active; positive
mutagenic call [5]: inactive; negative
mutagenic call [12]: active; positive

CCN(CCO)CCCNc1c2ccc(Cl)cc2nc2ccc(OC)cc12
mutagenic call (Species/Cell Type: Chinese hamster ovary (CHO) cells, Assay Type: Forward gene mutation at the HPRT locus, Assay Code: CHO-, Evaluation Type: Evaluation A (Pre-1980)): inactive; negative
mutagenic call (Species/Cell Type: Chinese hamster ovary (CHO) cells, Assay Type: Forward gene mutation at the HPRT locus, Assay Code: CHOT, Evaluation Type: Evaluation B (Post-1980)): no conclusion

Source: PubChem BioAssay AID1259408 (Genetic Toxicology Data Bank (GENE-TOX), 2018)
